In the experiment the target is T1, human recombinant LPA1 expressed in CHO cells (Homo sapiens, UniProt Q92633).
T1 construct: expressed in transfected cells; host or cells: CHO cells (CHO-hLPA1 cell line)
T1 sequence (Q92633 whole entry): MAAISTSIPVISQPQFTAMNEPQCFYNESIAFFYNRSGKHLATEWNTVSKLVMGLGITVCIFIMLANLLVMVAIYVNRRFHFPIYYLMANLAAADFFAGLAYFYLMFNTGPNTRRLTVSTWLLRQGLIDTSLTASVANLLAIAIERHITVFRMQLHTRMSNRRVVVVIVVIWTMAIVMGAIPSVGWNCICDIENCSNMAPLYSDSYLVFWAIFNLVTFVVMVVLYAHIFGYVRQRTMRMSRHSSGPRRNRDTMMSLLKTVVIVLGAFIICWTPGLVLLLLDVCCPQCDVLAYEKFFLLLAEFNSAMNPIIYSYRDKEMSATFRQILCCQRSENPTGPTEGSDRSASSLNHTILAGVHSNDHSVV
Put plainly: FLIPR calcium mobilization assay, LPA1 antagonism in CHO-hLPA1 cells. It is filed as cell-based. As to conditions: inhibition of LPA EC80 Ca2+ response, 30 min pre-incubation, range of activity. As for the experimental part:
The effectiveness of compounds of the present invention as LPA1 antagonist can be determined at the human recombinant LPA1 expressed in CHO cells, using a FLIPR assay in 384 well format.
CHO-hLPA1 cell lines are cultured in a humidified incubator at 5% CO2 in DMEM/F-12 (1:1) MIXTURE with 2 mM Glutamax, supplemented with 10% of Foetal Bovine Serum, 1 mM Sodium Pyruvate, 11 mM Hepes and 1× Penicillin/Streptomycin. CHO hLPA1 cells are seeded into black walled clear-bottom 384-well plates (#781091, Greiner Bio-One GmbH) at a density of 7,500 cells per well in 50 μl culture media and grown overnight in a 37° C. humidified CO2-incubator. Serial dilutions (1:3 or 1:4, 11 points CRC) of compounds are performed in 100% DMSO at 200× the final concentration. The compounds are diluted 1:50 prior to the experiment with Assay Buffer (20 mM HEPES, 145 mM NaCl, 5 mM KCl, 5.5 mM glucose, 1 mM MgCl2 and 2 mM CaCl2), pH 7.4 containing 0.01% Pluronic F-127) to obtain a solution corresponding to […] the final concentration in the assay (4×, 2% DMSO). The final concentration of DMSO in the assay will be 0.5% in each well. Medium is removed by aspiration and cells are then incubated with 30 μl of a loading solution containing 5 μM of the cytoplasmic Ca2+ indicator Cal-520 AM in Assay Buffer containing 2.5 mM probenecid for 30 min at 37° C. incubator (cell loading). The loaded cell plates are transferred into the FLIPR instrument and calcium responses are monitored during the on-line addition protocols. For testing of compounds, after the cell loading, 10 μl/well of 4× antagonists' solution was added onto the cells. After 30 min pre-incubation (at 37° C.), 10 μl/well of 5× concentrated LPA EC80 was added and Ca2+ mobilization responses was followed during the on-line addition protocol. Intracellular peak fluorescence values subtracted by baseline fluorescence are exported and analysed to determine IC50 values, respectively. The calcium response is expressed as percentage of the maximal inhibition of the EC80 agonist response.
The raw data obtained in unstimulated controls (DMSO, no LPA) are set as “100% inhibition”, while the raw data obtained in negative controls, i.e. in the absence of compounds and stimulating with LPA EC80, are set as “0% inhibition”.
The raw data (peak height expressed as relative fluorescence units) are normalized and transformed into “percent of inhibition”. Curve fitting and pIC50 (−Log IC50) estimations are carried out using a four-parameter logistic model using XLfit Software.
For orientation: A change in cytosolic calcium serves as a functional read-out for many receptors and channels.
As usually defined, the IC50 is the concentration needed to halve the response being measured. In the case of `Cc1nc(-c2onc(C)c2NC(=O)O[C@H](C)c2ccccc2Cl)ccc1NC(=O)C1C(c2nnn[nH]2)C1(F)F` (mixture of isomers) [Compound 14, (R)-1-(2-chlorophenyl)ethyl (5-(5-(2,2-difluoro-3-(1H-tetrazol-5-yl)cyclopropane-1-carboxamido)-6-methylpyridin-2-y1)-3-methylisoxazol-4-yl)carbamate, mix of Trans diastereomers], the IC50 is less than 50 nM.
For the compound `Cc1nc(-c2onc(C)c2NC(=O)O[C@H](C)c2ccccc2Cl)ccc1NC(=O)[C@@H]1[C@@H](C(=O)O)C1(F)F` [Compound 1, (1S,3S)-3-((6-(4-((((R)-1-(2-chlorophenyl)ethoxy)carbonyl)amino)-3-methylisoxazol-5-yl)-2-methylpyridin-3-yl)carbamoyl)-2,2-difluorocyclopropane-1-carboxylic acid], the concentration for half-maximal inhibition (IC50) was less than 50 nM.
Consider `Cc1nc(-c2onc(C)c2CNc2nccc(C3CCCCC3)n2)ccc1NC(=O)[C@@H]1[C@@H](C(=O)O)C1(F)F` (racemic) [Compound 18, 3-((6-(4-(((4-cyclohexylpyrimidin-2-yl)amino)methyl)-3-methylisoxazol-5-yl)-2-methylpyridin-3-yl)carbamoyl)-2,2-difluorocyclopropane-1-carboxylic acid, mix of Trans diastereomers], for which the half-maximal inhibitory concentration (IC50) is less than 50 nM.
Turning to `Cc1noc(-c2ccc(NC(=O)[C@@H]3[C@@H](C(=O)O)C3(F)F)cc2)c1COC(=O)N(C)C1CCCC1` (racemic) [Compound 36, 3-((4-(4-(((cyclopentyl(methyl)carbamoyl)oxy)methyl)-3-methylisoxazol-5-yl)phenyl)carbamoyl)-2,2-difluorocyclopropane-1-carboxylic acid, mix of Trans diastereomers], the IC50 lay in the range of 100 to 200 nM.
With `Cc1nc(-c2onc(C)c2CNc2nccc(-c3ccsc3)n2)ccc1NC(=O)[C@@H]1[C@@H](C(=O)O)C1(F)F` [Compound 21, (1S,3S)-2,2-difluoro-3-((2-methyl-6-(3-methyl-4-(((4-(thiophen-3-yl)pyrimidin-2-yl)amino)methyl)isoxazol-5-yl)pyridin-3-yl)carbamoyl)cyclopropane-1-carboxylic acid], the half-maximal inhibitory concentration (IC50) was less than 50 nM.
As for `Cc1nc(-c2onc(C)c2NC(=O)O[C@H](C)c2ccccc2Cl)ccc1CNC(=O)C1C(C(=O)O)C1(F)F` (mixture of isomers) [Compound 16, 3-(((6-(4-((((R)-1-(2-chlorophenyl)ethoxy)carbonyl)amino)-3-methylisoxazol-5-yl)-2-methylpyridin-3-yl)methyl)carbamoyl)-2,2-difluorocyclopropane-1-carboxylic acid, mix of Cis diastereomers], the IC50 was in the range of 50 to 100 nM.
On to `Cc1noc(-c2ccc(N(C)C(=O)C3C(C(=O)O)C3(F)F)cc2)c1NC(=O)O[C@H](C)c1ccccc1Cl` (single isomer, unassigned; diastereomer 2) [Compound 9], for which the 50% inhibitory concentration (IC50) lay within 50 to 100 nM.
For the compound `Cc1nc(-c2onc(C)c2CNc2nccc(-c3cnccn3)n2)ccc1NC(=O)[C@@H]1[C@@H](C(=O)O)C1(F)F` [Compound 23, (1S,3S)-2,2-difluoro-3-((2-methyl-6-(3-methyl-4-(((4-(pyrazin-2-yl)pyrimidin-2-yl)amino)methyl)isoxazol-5-yl)pyridin-3-yl)carbamoyl)cyclopropane-1-carboxylic acid], the IC50 was less than 50 nM.
On to `Cc1nc(-c2nnn(C)c2NC(=O)O[C@H](C)c2ccccc2Cl)ccc1NC(=O)C1C(C(=O)O)C1(F)F` (single isomer, unassigned) [Compound 32], for which the concentration for half-maximal inhibition (IC50) is less than 50 nM.
In the case of `C[C@@H](OC(=O)Nc1cn(C)nc1-c1ccc(NC(=O)[C@@H]2[C@@H](C(=O)O)C2(F)F)cc1)c1ccccc1Cl` [Compound 38, (1S,3S)-3-((4-(4-((((R)-1-(2-chlorophenyl)ethoxy)carbonyl)amino)-1-methyl-1H-pyrazol-3-yl)phenyl)carbamoyl)-2,2-difluorocyclopropane-1-carboxylic acid], the IC50 fell in the range of 100 to 200 nM.
For `Cc1noc(-c2ccc(N(C)C(=O)C3C(C(=O)O)C3(F)F)cc2)c1NC(=O)O[C@H](C)c1ccccc1Cl` (single isomer, unassigned) [Compound 8], the IC50 lay within 100 to 200 nM.
Turning to `Cc1nc(-c2onc(C)c2Nc2cncc(OC(C)C)n2)ccc1NC(=O)C1C(C(=O)O)C1(F)F` (single isomer, unassigned; diastereomer 2) [Compound 11], the IC50 was less than 50 nM.
For `Cc1noc(-c2ccc(NC(=O)C3C(c4nnn[nH]4)C3(F)F)cc2)c1NC(=O)O[C@H](C)c1ccccc1Cl` (mixture of isomers) [Compound 13, (R)-1-(2-chlorophenyl)ethyl (5-(4-(2,2-difluoro-3-(1H-tetrazol-5-yl)cyclopropane-1-carboxamido)phenyl)-3-methylisoxazol-4-yl)carbamate, mix of Trans diastereomers] the value was less than 50 nM.
For `Cc1nc(-c2snc(C)c2NC(=O)O[C@H](C)c2ccccc2Cl)ccc1NC(=O)C1C(C(=O)O)C1(F)F` (single isomer, unassigned; diastereomer 1) [Compound 31] the value was less than 50 nM; for `C[C@@H](OC(=O)Nc1cccn1-c1ccc(NC(=O)[C@@H]2[C@@H](C(=O)O)C2(F)F)cc1)c1ccccc1Cl` [Compound 39], 100 to 200 nM; for `Cc1nc(-c2onc(C)c2CNc2nccc(-c3cccs3)n2)ccc1NC(=O)[C@@H]1[C@@H](C(=O)O)C1(F)F` [Compound 24, (1S,3S)-2,2-difluoro-3-((2-methyl-6-(3-methyl-4-(((4-(thiophen-2-yl)pyrimidin-2-yl)amino)methyl)isoxazol-5-yl)pyridin-3-yl)carbamoyl)cyclopropane-1-carboxylic acid], less than 50 nM.
For `Cc1nc(-c2onc(C)c2CNc2nccc(-c3cccnc3)n2)ccc1NC(=O)[C@@H]1[C@@H](C(=O)O)C1(F)F` [Compound 25, (1S,3S)-2,2-difluoro-3-((2-methyl-6-(3-methyl-4-(((4-(pyridin-3-yl)pyrimidin-2-yl)amino)methyl)isoxazol-5-yl)pyridin-3-yl)carbamoyl)cyclopropane-1-carboxylic acid] the value was less than 50 nM.
In the case of `Cc1nc(-c2onc(C)c2NC(=O)O[C@H](C)c2ccccc2Cl)ccc1NC(=O)C1C(C(=O)O)C1(F)F` (stereo partly drawn) [Compound 4, 3-((6-(4-((((R)-1-(2-chlorophenyl)ethoxy)carbonyl)amino)-3-methylisoxazol-5-yl)-2-methylpyridin-3-yl)carbamoyl)-2,2-difluorocyclopropane-1-carboxylic acid], the half-maximal inhibitory concentration (IC50) was less than 50 nM.
For `C[C@@H](OC(=O)Nc1ncoc1-c1ccc(NC(=O)[C@@H]2[C@@H](C(=O)O)C2(F)F)cc1)c1ccccc1Cl` [Compound 40, methyl (1S,3S)-3-((4-(4-((((R)-1-(2-chlorophenyl)ethoxy)carbonyl)amino)oxazol-5-yl)phenyl)carbamoyl)-2,2-difluorocyclopropane-1-carboxlic acid] the value was 100 to 200 nM; for `Cc1nc(-c2sccc2NC(=O)O[C@H](C)c2ccccc2Cl)ccc1NC(=O)C1C(C(=O)O)C1(F)F` (single isomer, unassigned; diastereomer 2) [Compound 30], 100 to 200 nM.
As for `Cc1nc(-c2onc(C)c2NC(=O)O[C@H](C)c2ccccc2Cl)ccc1CNC(=O)C1C(C(=O)O)C1(F)F` (mixture of isomers) [Compound 17, 3-(((6-(4-((((R)-1-(2-chlorophenyl)ethoxy)carbonyl)amino)-3-methylisoxazol-5-yl)-2-methylpyridin-3-yl)methyl)carbamoyl)-2,2-difluorocyclopropane-1-carboxylic acid, mix of Trans diastereomers], the half-maximal inhibitory concentration (IC50) is less than 50 nM.
Regarding `Cc1nc(-c2onc(C)c2NC(=O)O[C@H](C)c2ccccc2Cl)ccc1NC(=O)[C@@H]1[C@@H](c2n[nH]c(=S)n2C)C1(F)F` [Compound 44, (R)-1-(2-chlorophenyl)ethyl (5-(5-((1S,3S)-2,2-difluoro-3-(4-methyl-5-thioxo-4,5-dihydro-1H-1,2,4-triazol-3-yl)cyclopropane-1-carboxamido)-6-methylpyridin-2-yl)-3-methylisoxazol-4-yl)carbamate], the half-maximal inhibitory concentration (IC50) fell in the range of 50 to 100 nM.

The record behind these values is patent publication US20250188068A1, “AMIDO CYCLOPROPYL DERIVATIVES AS LPA RECEPTOR INHIBITORS” (CHIESI FARMACEUTICI S.P.A., priority 2022, published 2025).
